Measurements: patent publication US20060094068A1, “Predictive markers in cancer therapy” (priority 2002, published 2006)
“Also recorded” adds a separate entry of the source.

What was measured:
activated MAPK and Ki-67 = conditions: humans, phase I trials, normal skin biopsies before and after administration; cited from earlier work
[1] = system: ERK MAP kinases and PKB/Akt; conditions: SKOV (human ovarian cancer) cells, preincubation; cited from earlier work
erbB2 [2] = target: T1, erbB2 (Homo sapiens, UniProt P04626); experiment: Quantitative IHC of erbB2 in HN5 and BT474 xenografts; format: in vivo, mice; conditions: 200 mg/kg oral once daily
Erk1/2 [3] = experiment: p-Erk1/2 in HN5 tumor xenografts (Western blot); format: in vivo, CD-1 nude mice
Experimental: (§1) HN5 cells were grown in DMEM supplemented with 10% fetal bovine serum, sodium pyruvate and L-glutamine at 37° C. in a 95/5% air/CO2 atmosphere. […] Cells (2×10^6/mouse) in 0.2 ml were injected into the right flank of CD-1 nude mice. Female CD-1 nude mice were acquired from Charles River Laboratories. Mice were maintained in filter-topped cages in an aseptic environment with laminar flow filtered ventilation. […] Tumors were biopsied pre-treatment and 4 hours after the last dose. All animal surgery was conducted under aseptic conditions. For the initial biopsy, mice were anesthetized with isofluorane inhalation. The skin over the tumor was disinfected with iodine. A small hemostat was used to tease away the skin from the tumor, and scissors were used to make a 1 cm incision over the tumor. A scalpel and forceps were used to remove approximately 100 mg of tumor. The tumor was then frozen in liquid nitrogen. Wound clips were used to close the incision. The anesthetized mice were kept warm until they recovered mobility, usually less than 1-2 minutes. For the terminal biopsy, mice were euthanized with CO2 inhalation, and the remainder of the tumor excised. HN5 tumors were placed on dry ice in vials containing cold isopentane, nd stored at −80° C. prior to study. […]

Hb4a cells = experiment: Hb4a cell growth, viable cell count by trypan blue exclusion; format: cell-based, human; conditions: GW572016 2.5 μM + EGF 50 ng/ml, 72 h
Experimental: Exponentially growing Hb4a cells were cultured in 35 mm petri dishes with serum-free medium containing 1.5% BSA. […] Viable cells were counted after 72 h using trypan blue exclusion.

Erk1/2 [4] = experiment: p-Erk1/2 in Hb4a cells (Western blot); format: cell-based, human; conditions: 72 h, GW572016 5 μM, Herceptin 10 μg/ml
Erk1/2 [5] = experiment: Clinical trial, localisation of total Erk1/2 in tumor biopsies (IHC); conditions: patient 361, day 21; before treatment nuclear
From the text: Erk1/2 (1:1200), erbB3 (1:10), heregulin (1:25), and TGFα (1:20) were also immunostained using the BenchMark™ with I-VIEW detection chemistry.

cyclin D1 = experiment: Clinical trial, cyclin D1 in sequential tumor biopsies (quantitative IHC)
erbB2 [6] = target: T1, erbB2; experiment: Clinical trial, erbB2 p-tyr and total erbB2 in tumor biopsies (IHC); conditions: patient 361, 1200 mg/day
AKT [7] = experiment: p-AKT in HN5 tumor xenografts (Western blot); format: in vivo, CD-1 nude mice
Experimental: as §1

p-AKT = experiment: Clinical trial, p-AKT in sequential tumor biopsies (quantitative IHC); conditions: patient 361, after 21 days of treatment
AKT [8] = experiment: AKT phosphorylation in S1 cells; format: cell-based, human
solid tumors = experiment: Clinical trial, clinical response (RECIST re-staging at eight weeks); conditions: for Clinical response at 8 weeks: 1200 mg/d
AKT [9] = experiment: AKT activation in BT474 cells (Western blot); format: cell-based, human; conditions: 1 μM, 24 h, with or without EGF
HN5 cells [10] = conditions: cited from earlier work
erbB2 [11] = target: T1, erbB2; experiment: EGF stimulation experiment, p-Tyr/erbB2 in BT474 cells; conditions: 1 μM, 24 h, serum-free, with or without EGF 50 ng/ml
AKT [12] = experiment: AKT activation in HN5 cells (Western blot); format: cell-based, human; conditions: 5 μM, 24 h
Erk1/2 [13] = experiment: Quantitative IHC of Erk1/2 in tumor xenografts; format: in vivo, mice
From the text: DAB (Dako) was used as the chromogen.
Inhibition of erbB2/EGFR p-tyr in turn led to the inhibition of downstream activated, phospho-Erk1/2.

S1 cells = experiment: Cell cycle analysis / apoptosis in S1 cells (propidium iodide flow cytometry); conditions: 5 μM, 72 h
Experimental: Cells were harvested and fixed with 70% ethanol in PBS. Cell pellets were then resuspended in 0.5 ml PBS containing propidium iodide (50 μg/ml) and DNase-free RNase (100 μg/ml). Cell cycle analysis was performed using a BD Flow Cytometer (Becton Dickinson, San Jose, Calif., USA).
After 72 h, cell cycle analysis was performed using propidium iodide staining and flow cytometry as described in Materials and methods.

Erk1/2 [14] = experiment: Erk1/2 activation in BT474 cells (Western blot); format: cell-based, human
p-Erk1/2 = experiment: Clinical trial, p-ERK index in sequential tumor biopsies (quantitative IHC); conditions: patient 361, day 21
Erk1/2 [15] = experiment: Erk1/2 activation in HN5 cells (Western blot); format: cell-based, human
HN5 cells [16] = experiment: Apoptosis and growth arrest in HN5 cells; format: cell-based, human
[17] = 72 h, GW572016 500 nM or 1 μM, Herceptin 10 μg/ml

T1 sequence (P04626 23-1255): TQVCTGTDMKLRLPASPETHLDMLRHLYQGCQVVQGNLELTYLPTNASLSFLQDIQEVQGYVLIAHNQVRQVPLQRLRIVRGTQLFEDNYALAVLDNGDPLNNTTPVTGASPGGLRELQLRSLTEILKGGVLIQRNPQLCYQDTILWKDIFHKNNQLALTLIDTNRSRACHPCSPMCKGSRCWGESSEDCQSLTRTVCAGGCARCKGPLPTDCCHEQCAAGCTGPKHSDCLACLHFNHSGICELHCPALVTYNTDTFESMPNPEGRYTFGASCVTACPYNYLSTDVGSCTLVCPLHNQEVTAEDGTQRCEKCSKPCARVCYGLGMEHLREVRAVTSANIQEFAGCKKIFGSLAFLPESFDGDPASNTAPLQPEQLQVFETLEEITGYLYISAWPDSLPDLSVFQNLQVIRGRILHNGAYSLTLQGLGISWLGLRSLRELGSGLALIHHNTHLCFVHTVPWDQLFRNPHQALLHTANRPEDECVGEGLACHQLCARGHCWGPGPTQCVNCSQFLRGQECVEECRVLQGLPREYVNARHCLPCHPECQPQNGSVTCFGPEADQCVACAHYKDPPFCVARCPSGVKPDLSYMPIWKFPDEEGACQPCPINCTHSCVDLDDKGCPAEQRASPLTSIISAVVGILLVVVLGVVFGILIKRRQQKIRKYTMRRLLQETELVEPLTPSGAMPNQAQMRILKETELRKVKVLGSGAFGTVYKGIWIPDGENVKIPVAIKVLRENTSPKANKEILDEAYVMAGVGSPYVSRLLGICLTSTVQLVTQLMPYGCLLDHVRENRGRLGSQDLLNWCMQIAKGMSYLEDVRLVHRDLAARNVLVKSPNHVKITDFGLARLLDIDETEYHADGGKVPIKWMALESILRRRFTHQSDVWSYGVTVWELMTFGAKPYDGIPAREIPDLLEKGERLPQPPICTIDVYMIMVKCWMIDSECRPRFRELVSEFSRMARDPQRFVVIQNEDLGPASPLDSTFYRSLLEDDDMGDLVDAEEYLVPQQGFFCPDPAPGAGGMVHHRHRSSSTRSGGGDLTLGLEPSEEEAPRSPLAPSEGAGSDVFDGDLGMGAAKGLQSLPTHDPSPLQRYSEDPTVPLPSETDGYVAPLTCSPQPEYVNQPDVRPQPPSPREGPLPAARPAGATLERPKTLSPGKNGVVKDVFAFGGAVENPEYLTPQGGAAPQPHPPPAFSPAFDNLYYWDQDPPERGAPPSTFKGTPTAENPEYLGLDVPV

For `COc1cc2ncnc(Nc3ccc(F)c(Cl)c3)c2cc1OCCCN1CCOCC1` [ZD1839], the “Expression of activated MAPK and Ki-67 in keratinocytes” value (activated MAPK and Ki-67) is given as “decreased expression of both activated MAPK and Ki-67” and the “EGF-induced increases in activation of ERK MAP kinases and PKB/Akt” value [1] is given as “block EGF-induced increases in activation of ERK MAP kinases and PKB/Akt”.

For `CS(=O)(=O)CCNCc1ccc(-c2ccc3ncnc(Nc4ccc(OCc5cccc(F)c5)c(Cl)c4)c3c2)o1` [GW572016, N-{3-Chloro-4-[(3-fluorobenzyl)oxy]phenyl}-6-[5-({[2-(methylsulfonyl)ethyl]amino}methyl)-2-furyl]4-quinazolinamine], the “Activated erbB2 (IHC)” value (erbB2 [2]) was “inhibition of activated EGFR and erbB2 in a dose-dependent manner”, the “erbB2 total protein (IHC)” value (erbB2 [2]) was “neither EGFR nor erbB2 total protein was affected” and the p-Erk1/2 (Erk1/2 [3]; 10 mg/kg) was “little effect”. For the same compound, the p-Erk1/2 (Erk1/2 [3]; 30 mg/kg/dose) was “inhibited p-Erk1/2 and p-AKT”, the “Growth inhibition with concurrent EGF” value (Hb4a cells) was “did not reverse” and the “Baseline p-Erk” value (Erk1/2 [4]) was “reduced the baseline amount of p-Tyr/erbB2 and p-Erk, effects not reversed by EGF; also recorded: decreased”. The “Localisation of total Erk1/2 protein” value (Erk1/2 [5]) was “almost entirely cytoplasmic”, the “Inhibition of expressed cyclin D1 protein” value (cyclin D1; patient 361, day 21) was 90% and the “Decrease in cyclin D1” value (cyclin D1; patient 372, day 21) was 80%. For the same compound, the “Total erbB2 protein” value (erbB2 [6]) was “had no effect”, the erbB2 p-tyr (erbB2 [6]; day 21) was “did not inhibit” and the p-AKT (AKT [7]; 10 mg/kg) was “little effect”. The p-AKT (AKT [7]; 30 mg/kg/dose) was “inhibited p-Erk1/2 and p-AKT”, the “Inhibition of p-AKT” value (p-AKT) was 33% and the “Baseline phosphorylation of AKT” value (AKT [8]) was “inhibits baseline phosphorylation of AKT”. The “Clinical response at 8 weeks” value (solid tumors; patient 361, breast) was “partial responses”, the “Sequentially biopsied metastatic lymph node” value (solid tumors; patient 364, 1600 mg/day, at day 21 biopsy) was “had reduced in size” and the “Clinical response at 8 weeks” value (solid tumors; patient 372, breast) was “partial responses”. For the same compound, the “Stable Disease at eight weeks” value (solid tumors; patients with >70% decrease in pERK index) was “Stable Disease: 3/5”, the “p-AKT (Ser 473)” value (AKT [9]) was “completely inhibited p-AKT” and the “Apoptosis (Rusnak et al.)” value (HN5 cells [10]) was “increased only slightly”. The “Baseline levels of p-Tyr/erbB2” value (erbB2 [11]) was “inhibited baseline levels of p-Tyr/erbB2, an effect not reversed by EGF”, the p-AKT (AKT [12]) was “inhibits baseline phosphorylation of AKT” and the “Total Erk1/2 protein (IHC)” value (Erk1/2 [13]) was “unaffected”. For the same compound, the “p-Erk1/2 levels (IHC)” value (Erk1/2 [13]) was “reduced”, the “Increase in percentage of apoptotic cells vs vehicle controls” value (S1 cells) was 23 fold and the “EGF stimulation of p-Erk1/2” value (Erk1/2 [14]; 1 μM, 24 h, EGF 50 ng/ml) was “inhibited EGF stimulation of p-Erk1/2”. The “p-Erk1/2 levels compared with untreated controls” value (Erk1/2 [14]; [17]) was “inhibited p-Erk1/2”, the “Activated Erk1/2 in re-biopsy of metastatic subcutaneous nodule” value (p-Erk1/2) was “completely inhibited; also recorded: completely inactivated” and the “Downstream p-Erk1/2” value (Erk1/2 [15]; 5 μM, 24 h) was “inhibited downstream p-Erk1/2”. For the same compound, the “p-Erk1/2 levels compared with untreated controls” value (Erk1/2 [15]; [17]) was “inhibited p-Erk1/2” and the Growth arrest (HN5 cells [16]) was “growth arrest was seen”.
